Measurements from patent US8092841B2.

Experiments:
ERβ [1] = molecular target: T1, ERβ (Homo sapiens, UniProt Q92731); settings: in the presence of ERβ
Excerpt: (§1) Plasmid Construction. […] ERβ mutants were created with QuikChange site-directed mutagenesis kits (Stratagene), by using oligonucleotides containing the mutation. The mutants were sequenced with Sequenase kits (Amersham Pharmacia) to verify the presence of the mutation.

ERβ [2] = molecular target: T1, ERβ; assay: TNF-RE tkLuc repression, U2OS cells with ERβ; format: cell-based; design: expressed in transfected cells; host or cells: U2OS (human osteosarcoma)
TNF-RE tkLuc = assay: Activation of TNF-RE tkLuc reporter (Example 2); format: cell-based; settings: for activation of TNF-RE tkLuc by antiestrogens: in contrast to E2
Excerpt: as §1

breast cancer [3] = settings: among the 5129 women in the raloxifene treatment group, median follow-up of 40 months; cited from earlier work
breast cancer [4] = settings: five years of tamoxifen therapy; cited from earlier work
breast cancer [5] = settings: women at high risk for breast cancer; cited from earlier work

T1 sequence (Q92731 whole entry): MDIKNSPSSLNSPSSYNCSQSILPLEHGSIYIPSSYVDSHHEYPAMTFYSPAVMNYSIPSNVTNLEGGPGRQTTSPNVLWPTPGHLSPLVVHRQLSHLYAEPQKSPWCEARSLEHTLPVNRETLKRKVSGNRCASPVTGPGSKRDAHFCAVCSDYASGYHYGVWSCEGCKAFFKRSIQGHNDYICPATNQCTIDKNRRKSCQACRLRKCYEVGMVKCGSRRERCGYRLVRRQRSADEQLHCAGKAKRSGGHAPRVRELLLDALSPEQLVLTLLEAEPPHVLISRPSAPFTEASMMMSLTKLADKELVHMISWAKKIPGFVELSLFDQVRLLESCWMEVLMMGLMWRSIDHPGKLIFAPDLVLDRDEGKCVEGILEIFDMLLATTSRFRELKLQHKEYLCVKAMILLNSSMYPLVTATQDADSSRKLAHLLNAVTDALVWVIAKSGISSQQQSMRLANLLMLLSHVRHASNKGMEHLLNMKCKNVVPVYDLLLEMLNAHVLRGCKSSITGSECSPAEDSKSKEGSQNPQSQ

Compound: C[C@]12CC[C@@H]3c4ccc(O)cc4CC[C@H]3[C@@H]1CC[C@@H]2O [E2, estradiol]
- repression of TNF-α activation of TNF-RE tkLuc (ERβ [1]): 60-80%
- repression of TNF-α activation of TNF-RE (ERβ [2]): 100%

Compound: C[C@]12CC[C@@H]3c4ccc(O)cc4C[C@@H](CCCCCCCCC[S+]([O-])CCCC(F)(F)C(F)(F)F)[C@H]3[C@@H]1CC[C@@H]2O (stereo partly shown) [ICI 182, 780]
- activation of TNF-RE tkLuc by antiestrogens (TNF-RE tkLuc): 2 fold

Compound: O=C(c1ccc(OCCN2CCCCC2)cc1)c1c(-c2ccc(O)cc2)sc2cc(O)ccc12 [raloxifene]
- activation of TNF-RE tkLuc by antiestrogens (TNF-RE tkLuc): 2 fold
- cases of breast cancer (breast cancer [3]): 13 cases

Compound: CC/C(=C(\c1ccccc1)c1ccc(OCCN(C)C)cc1)c1ccccc1 [tamoxifen]
- activation of TNF-RE tkLuc by antiestrogens (TNF-RE tkLuc): 2 fold
- reduction of mortality from breast cancer (breast cancer [4]): 22%
- reduction of the risk of recurrences (breast cancer [4]): 42%
- reduction of the risk of primary invasive breast cancer (breast cancer [5]): 49%

Compound: TNF-α
- activation of 3 copies of the TNF-RE (−125 to −82) upstream of the tk promoter (TNF-RE tkLuc; TNF-RE tkLuc): 5-10 fold
